Experimental data from patent US20210403435A1, “HERBICIDAL COMPOUNDS” (SYNGENTA CROP PROTECTION AG, priority 2018, published 2021).
Counter-ions that a name gives are not always drawn. Like-named read-outs stand apart in the source and are kept apart here.

Experiments:
Assay in all cases: Post-emergence efficacy, glasshouse, evaluated after 13 days
Type in all cases: in vivo
[1] = test system: Amaranthus palmeri (AMAPA); conditions: for pest or weed control at 500 g/ha: Amaranthus palmeri, 312 h, read-out: Control of weed species AMAPA (100=total damage to plant; 0=no damage to plant)
Method: (§1) Seeds of a variety of test species were sown in standard soil in pots. After cultivation for 14 days (post-emergence) under controlled conditions in a glasshouse (at 24/16° C., day/night; 14 hours light; 65% humidity), the plants were sprayed with an aqueous spray solution derived from the dissolution of the technical active ingredient formula (I) in a small amount of acetone and a special solvent and emulsifier mixture referred to as IF50 (11.12% Emulsogen EL360 TM+44.44% N-methylpyrrolidone+44.44% Dowanol DPM glycol ether), to create a 50 g/l solution which was then diluted to required concentration using 0.25% or 1% Empicol ESC70 (Sodium lauryl ether sulphate)+1% ammonium sulphate as diluent.
(§2) The test plants were then grown in a glasshouse under controlled conditions (at 24/16° C., day/night; 14 hours light; 65% humidity) and watered twice daily. After 13 days the test was evaluated (100=total damage to plant; 0=no damage to plant).
(§3) Ipomoea hederacea (IPOHE), Euphorbia heterophylla (EPHHL), Chenopodium album (CHEAL), Amaranthus palmeri (AMAPA), Lolium perenne (LOLPE), Digitaria sanguinalis (DIGSA), Eleusine indica (ELEIN), Echinochloa crus-galli (ECHCG), Setaria faberi (SETFA)

[2] = test system: Chenopodium album (CHEAL); conditions: for pest or weed control at 500 g/ha: Chenopodium album, 312 h, read-out: Control of weed species CHEAL (100=total damage to plant; 0=no damage to plant)
Method: as §1, §2, §3

[3] = test system: Digitaria sanguinalis (DIGSA); conditions: for pest or weed control at 500 g/ha: Digitaria sanguinalis, 312 h, read-out: Control of weed species DIGSA (100=total damage to plant; 0=no damage to plant)
Method: as §1, §2, §3

[4] = test system: Echinochloa crus-galli (ECHCG); conditions: for pest or weed control at 500 g/ha: Echinochloa crus-galli, 312 h, read-out: Control of weed species ECHCG (100=total damage to plant; 0=no damage to plant)
Method: as §1, §2, §3

Eleusine indica (ELEIN) = conditions: for pest or weed control at 500 g/ha: Eleusine indica, 312 h, read-out: Control of weed species ELEIN (100=total damage to plant; 0=no damage to plant)
Method: as §1, §2, §3

[5] = test system: Euphorbia heterophylla (EPHHL); conditions: Euphorbia heterophylla, 312 h, read-out: Control of weed species EPHHL (100=total damage to plant; 0=no damage to plant)
Method: as §1, §2, §3

[6] = test system: Ipomoea hederacea (IPOHE); conditions: for pest or weed control at 500 g/ha: Ipomoea hederacea, 312 h, read-out: Control of weed species IPOHE (100=total damage to plant; 0=no damage to plant)
Method: as §1, §2, §3

Lolium perenne (LOLPE) = conditions: for pest or weed control at 500 g/ha: Lolium perenne, 312 h, read-out: Control of weed species LOLPE (100=total damage to plant; 0=no damage to plant)
Method: as §1, §2, §3

Setaria faberi (SETFA) = conditions: for pest or weed control at 500 g/ha: Setaria faberi, 312 h, read-out: Control of weed species SETFA (100=total damage to plant; 0=no damage to plant)
Method: as §1, §2, §3

[7] = post-emergence application, 500 g/Ha, evaluated after 13 days

Row | Compound | pest or weed control at 500 g/ha [1, 7] | pest or weed control at 500 g/ha [2, 7] | pest or weed control at 500 g/ha [3, 7] | pest or weed control at 500 g/ha [4, 7] | pest or weed control at 500 g/ha (Eleusine indica (ELEIN); [7]) | pest or weed control at 500 g/ha [5, 7] | pest or weed control at 500 g/ha [6, 7] | pest or weed control at 500 g/ha (Lolium perenne (LOLPE); [7]) | pest or weed control at 500 g/ha (Setaria faberi (SETFA); [7]) | further results
1 | CC1(C)CC(CCNC(=O)c2cc[n+](CCC(=O)O)nc2)=NO1 [Compound A148, 3-[4-[2-(5,5-dimethyl-4H-isoxazol-3-yl)ethylcarbamoyl]pyridazin-1-ium-1-yl]propanoic acid 2,2,2-trifluoroacetate] | 70% | 90% | 80% | 30% | 30% | 40% | 30% | 30% | 50% | 
2 | O=C(O)CC[n+]1ccc(C(=O)NC2C[S+]([O-])C2)cn1 (stereo not drawn) [Compound A68] | 100% | 90% | 100% | 100% |  | 100% | 100% | 90% | 70% | 
3 | C#CC(C)(C)NC(=O)c1cc[n+](CCC(=O)O)nc1 [Compound A77] | 100% | 90% |  |  |  | 100% | 10% | 80% | 100% | 
4 | CNC(=O)c1cc[n+](CCC(=O)O)nc1-c1ccccc1 [Compound A55] | 100% | 80% | 60% | 80% | 30% |  | 40% | 0% | 40% | 
5 | CC(=O)NNC(=O)c1cc[n+](CCC(=O)O)nc1 [Compound A105] | 50% | 70% |  | 40% | 30% | 60% | 30% | 10% | 60% | 
6 | O=C(O)CC[n+]1ccc(C(=O)NC2CS(=O)(=O)C2)cn1 [Compound A67] | 30% | 50% | 100% | 100% | 90% |  | 30% | 90% | 100% | 
7 | CCCCNC(=O)c1cc[n+](CCC(=O)O)nc1 [Compound A45] | 80% | 90% | 70% | 70% | 80% |  | 30% | 60% | 90% | 
8 | CNC(=O)c1cc[n+](CCS(=O)(=O)[O-])nc1-c1ccccc1 [Compound A54] | 80% | 70% | 60% | 40% | 50% |  | 10% | 0% | 20% | 
9 | CCNC(=O)c1cc[n+](C[C@H](N)C(=O)O)nc1 [Compound A121, [(1S)-1-carboxy-2-[4-(ethylcarbamoyl)pyridazin-1-ium-1-yl]ethyl]ammonium 2,2,2-trifluoroacetate] |  |  |  |  |  |  |  |  |  | pest or weed control at 500 g/ha ([1]; post-emergence): 10%; pest or weed control at 500 g/ha ([2]; post-emergence): 20%; pest or weed control at 500 g/ha ([4]; post-emergence): 10%; pest or weed control at 500 g/ha (Eleusine indica (ELEIN); post-emergence): 10%; pest or weed control at 500 g/ha ([5]; post-emergence): 30%; pest or weed control at 500 g/ha ([6]; post-emergence): 10%; pest or weed control at 500 g/ha (Lolium perenne (LOLPE); post-emergence): 10%; pest or weed control at 500 g/ha (Setaria faberi (SETFA); post-emergence): 10%
10 | CNC(=O)c1cc[n+](CCS(=O)(=O)[O-])nc1C [Compound A56] |  |  |  |  |  |  |  |  |  | Control of weed species AMAPA (100=total damage to plant; 0=no damage to plant) [1, 7]: 100; Control of weed species CHEAL (100=total damage to plant; 0=no damage to plant) [2, 7]: 90; Control of weed species DIGSA (100=total damage to plant; 0=no damage to plant) [3, 7]: 80; Control of weed species ECHCG (100=total damage to plant; 0=no damage to plant) [4, 7]: 90; Control of weed species ELEIN (100=total damage to plant; 0=no damage to plant) (Eleusine indica (ELEIN); [7]): 60; Control of weed species IPOHE (100=total damage to plant; 0=no damage to plant) [6, 7]: 30; Control of weed species LOLPE (100=total damage to plant; 0=no damage to plant) (Lolium perenne (LOLPE); [7]): 40; Control of weed species SETFA (100=total damage to plant; 0=no damage to plant) (Setaria faberi (SETFA); [7]): 60
11 | O=C(O)CC[n+]1ccc(C(=O)NC2CCCC2)cn1 [Compound A58] | 70% | 60% | 90% | 70% | 90% |  | 30% | 90% | 90% | 
12 | C#CC(C)NC(=O)c1cc[n+](CCC(=O)O)nc1 (stereo not drawn) [Compound A78] | 100% | 100% |  |  |  | 70% | 90% | 80% | 100% | 
13 | CC(C)N(C)C(=O)c1cc[n+](CCS(=O)(=O)O)nc1 [Compound A9] | 90% | 90% | 50% | 30% | 20% |  | 30% | 30% | 60% | 
14 | CCNC(=O)c1cc[n+](CCP(=O)(O)O)nc1 [Compound A119] | 100% | 100% |  | 30% | 30% | 80% | 50% | 20% | 50% | 
15 | CCNC(=O)c1cc[n+](CCS(=O)(=O)[O-])nc1 [Compound A48] | 90% |  | 90% | 70% | 100% |  | 80% | 70% | 90% | 
16 | O=C(NCCO)c1cc[n+](CCS(=O)(=O)[O-])nc1 [Compound A49] | 100% | 80% | 100% | 80% | 30% |  | 70% | 60% | 90% | 
17 | CNC(=O)c1cc[n+](CCC(=O)O)nc1 [Compound A4, 3-[4-(methylcarbamoyl)pyridazin-1-ium-1-yl]propanoic acid trifluoroacetate] |  |  |  |  |  |  |  |  |  | pest or weed control at 500 g/ha ([2]; post-emergence): 80%; pest or weed control at 500 g/ha ([3]; post-emergence): 100%; pest or weed control at 500 g/ha ([4]; post-emergence): 90%; pest or weed control at 500 g/ha (Eleusine indica (ELEIN); post-emergence): 100%; pest or weed control at 500 g/ha ([5]; post-emergence): 90%; pest or weed control at 500 g/ha ([6]; post-emergence): 80%; pest or weed control at 500 g/ha (Lolium perenne (LOLPE); post-emergence): 60%; pest or weed control at 500 g/ha (Setaria faberi (SETFA); post-emergence): 90%
